How the values were obtained:
[1] = Stable therapeutic warfarin dose by CYP2C9, VKORC1 and rs2108622 (CYP4F2) genotype, 424 subjects; assay type: in vivo, human
Source text: The initial cohort was recruited at Marshfield Clinic, a multi-specialty group practice in Wisconsin as described.^6, 16 Patients were excluded from the study if they were known to have cancer, renal or hepatic insufficiency, or congestive heart failure.
The targeted human DMET 1.0 assay (Affymetrix, Inc, Santa Clara, Calif.) utilizes molecular inversion probes and GeneChip universal tag arrays to target 1228 single nucleotide polymorphisms (SNP) within 170 genes for metabolic enzymes and transport and regulatory proteins (Table 2).
The laboratory protocol followed the standard process described in the Targeted Genotyping System User Guide^25 except for a preliminary polymerase chain reaction (PCR)-amplification step aimed at resolving genotypes from 29 SNPs in regions containing pseudogenes and close homologues. GeneChip Targeted Genotyping Analysis software was used to make genotype calls and generate QC metrics including call rates, average signal, cluster quality, Hardy-Weinberg equilibrium, and reproducibility. […] Genotypes represented by the remaining 1217 SNP assays were called according to either predefined boundaries (derived from historical training sets) or dynamic clustering using the current data set. […] The remaining polymorphisms target rare mutations or SNPs prevalent in other racial groups.
VKORC1 genotypes were determined on 436 Marshfield Clinic samples as described^6 and on the remaining 61 samples using Invader® chemistry in a laboratory test developed with analyte specific reagents manufactured by Third Wave Technologies (TWT, Madison, Wis.). The laboratory developed assay used analyte-specific reagents that detect CYP2C9*2, CYP2C9*3, and VKORC1 (position −1639).^26

[2] = Pooled regression models of stable warfarin dose versus CYP4F2 rs2108622 genotype, three Caucasian cohorts; assay type: in vivo, human
Source text: Therefore, we conducted multiple regression analyses only on the *1 genotypes (n=1009), and used the observed mean dose (log scale) as the predicted value for those with only non-wild CYP2C9 alleles (*2/*2, *2/*3, and *3/*3, n=42). Accordingly, our models that include genetic variables are composites of multiple regression and simple mean-based estimation approaches.
To assess the relative contribution of clinical and genetic factors, three models were developed using different sets of potential predictor variables: clinical factors only (gender, age, body surface area, and target international normalized ratio), clinical factors plus CYP2C9 and VKORC1, and clinical factors CYP2C9, VKORC1, and rs2108622. A modified step-down approach^29 was used, starting with a “full” model which included all potential predictors pertinent to that model, effects to allow the three study sites to differ, two-factor interactions (including those by site), and quadratic terms for age, body surface area, and target international normalized ratio. […] The regression models were finalized after evaluating residuals and excluding cases with large residuals as outliers (|Studentized Residual|>3).
The explanatory power for the three final models was assessed graphically and by using the adjusted r-squared (R^2adj). The R^2adj statistic measures the proportion of the total variability explained by the model with adjustment for the number of parameters in the model. The statistic was directly calculated to use all cases under analysis by pooling across both parts of the composite models and by applying the final regression model to any outliers dropped when estimating the parameters in the regression models.

Structure (SMILES): CC(=O)CC(c1ccccc1)c1c(O)c2ccccc2oc1=O (stereo not shown) [warfarin]
- Geometric Mean warfarin dose ([1]; CYP2C9 *1/*1, VKORC1 CC, rs2108622 CC, N=13): 20.0 mg/week
- Geometric Mean warfarin dose ([1]; CYP2C9 *1/*1, VKORC1 CC, rs2108622 CT, N=18): 21.1 mg/week
- Geometric Mean warfarin dose ([1]; CYP2C9 *1/*1, VKORC1 CC, rs2108622 TT, N=2): 34.5 mg/week
- Geometric Mean warfarin dose ([1]; CYP2C9 *1/*1, VKORC1 CG, rs2108622 CC, N=68): 29.6 mg/week
- Geometric Mean warfarin dose ([1]; CYP2C9 *1/*1, VKORC1 CG, rs2108622 CT, N=46): 31.9 mg/week
- Geometric Mean warfarin dose ([1]; CYP2C9 *1/*1, VKORC1 CG, rs2108622 TT, N=12): 37.9 mg/week
- Geometric Mean warfarin dose ([1]; CYP2C9 *1/*1, VKORC1 GG, rs2108622 CC, N=64): 39.5 mg/week
- Geometric Mean warfarin dose ([1]; CYP2C9 *1/*1, VKORC1 GG, rs2108622 CT, N=41): 45.1 mg/week
- Geometric Mean warfarin dose ([1]; CYP2C9 *1/*1, VKORC1 GG, rs2108622 TT, N=8): 47.3 mg/week
- Geometric Mean warfarin dose ([1]; CYP2C9 *1/*2, VKORC1 CC, rs2108622 CC, N=3): 16.6 mg/week
- Geometric Mean warfarin dose ([1]; CYP2C9 *1/*2, VKORC1 CC, rs2108622 CT, N=5): 19.6 mg/week
- Geometric Mean warfarin dose ([1]; CYP2C9 *1/*2, VKORC1 CC, rs2108622 TT, N=1): 17.5 mg/week
- Geometric Mean warfarin dose ([1]; CYP2C9 *1/*2, VKORC1 CG, rs2108622 TT, N=5): 31.0 mg/week
- Geometric Mean warfarin dose ([1]; CYP2C9 *1/*2, VKORC1 GG, rs2108622 CC, N=13): 29.7 mg/week
- Geometric Mean warfarin dose ([1]; CYP2C9 *1/*2, VKORC1 GG, rs2108622 CT, N=17): 34.1 mg/week
- Geometric Mean warfarin dose ([1]; CYP2C9 *1/*3, VKORC1 CC, rs2108622 CT, N=2): 21.3 mg/week
- Geometric Mean warfarin dose ([1]; CYP2C9 *1/*3, VKORC1 CG, rs2108622 CC, N=13): 21.5 mg/week
- Geometric Mean warfarin dose ([1]; CYP2C9 *1/*3, VKORC1 GG, rs2108622 CC, N=5): 22.3 mg/week
- Geometric Mean warfarin dose ([1]; CYP2C9 *1/*3, VKORC1 GG, rs2108622 TT, N=3): 34.5 mg/week
- Geometric Mean warfarin dose ([1]; CYP2C9 *2/*2, VKORC1 CG, rs2108622 CC, N=1): 22.0 mg/week
- Geometric Mean warfarin dose ([1]; CYP2C9 *2/*2, VKORC1 CG, rs2108622 CT, N=1): 28.0 mg/week
- Geometric Mean warfarin dose ([1]; CYP2C9 *2/*2, VKORC1 CG, rs2108622 TT, N=1): 35.0 mg/week
- Geometric Mean warfarin dose ([1]; CYP2C9 *2/*2, VKORC1 GG, rs2108622 CC, N=1): 18.5 mg/week
- Geometric Mean warfarin dose ([1]; CYP2C9 *2/*2, VKORC1 GG, rs2108622 CT, N=1): 37.5 mg/week
- Geometric Mean warfarin dose ([1]; CYP2C9 *2/*2, VKORC1 GG, rs2108622 TT, N=1): 35.0 mg/week
- Geometric Mean warfarin dose ([1]; CYP2C9 *2/*3, VKORC1 CC, rs2108622 CC, N=1): 20.0 mg/week
- Geometric Mean warfarin dose ([1]; CYP2C9 *2/*3, VKORC1 CG, rs2108622 CT, N=1): 22.5 mg/week
- Geometric Mean warfarin dose ([1]; CYP2C9 *2/*3, VKORC1 CG, rs2108622 TT, N=1): 15.0 mg/week
- Geometric Mean warfarin dose ([1]; CYP2C9 *2/*3, VKORC1 GG, rs2108622 CC, N=3): 15.3 mg/week
- Geometric Mean warfarin dose ([1]; CYP2C9 *3/*3, VKORC1 CG, rs2108622 CC, N=1): 6.5 mg/week
- Geometric Mean warfarin dose ([1]; CYP2C9 *3/*3, VKORC1 CG, rs2108622 CT, N=1): 4.5 mg/week
- increase in warfarin dose with each T allele (CYP4F2 effect, final pooled model) ([2]; Marshfield): 12.8%
- absolute contribution of CYP4F2 to stable warfarin dose ([2]; Marshfield cohort): 26%
- increase in warfarin dose with each T allele (CYP4F2 effect, final pooled model) ([2]; University of Florida): 6.8%
- increase in warfarin dose with each T allele (CYP4F2 effect, final pooled model) ([2]; Washington University in St. Louis): 3.8%
- absolute contribution of CYP4F2 to stable warfarin dose ([2]; Washington University in St. Louis cohort): 8%
- difference in warfarin dose requirement, two TT alleles versus two CC alleles of CYP4F2 rs2108622 ([2]; pooled analyses, three Caucasian cohorts stabilized on warfarin): about 1 mg/day

Reference: patent publication US20110189675A1, “Method For Administering Anticoagulation Therapy” (Marshfield Clinic, priority 2007, published 2011)
